# Source: US20160175223A1, “ANTI-AGING COMPOSITIONS COMPRISING BILE ACID-FATTY ACID CONJUGATES” (GALDERM THERAPEUTICS LTD., priority 2013, published 2016)
# Key:
# human skin fibroblasts = assay: [3H] cholesterol efflux in skin fibroblasts; assay type: cell-based; details: 20 hours incubation, compared to untreated cells
# Experimental: (§1) Steamchol was incubated with human skin fibroblasts for 20 hours to measure cholesterol loading in the presence of [^3H] cholesterol. After series of washing and adding efflux containing cholesterol acceptors, medium was collected and centrifuged and cell associated cholesterol was compared to effluxed cholesterol in the presence and absence of the similar FABAC. This research project also included quantification of mRNA of ABCA1 and direct measurement of ABCA1.
# (§2) Similarly, cells were pre-incubated with [^3H] cholesterol, washed four times and then placed in an incubation medium with or without Aramchol for 20 hours. Following the incubation, radioactivity was measured separately in the medium and in the cells. Cholesterol efflux percentage was calculated as radioactivity in medium divided by the total radioactivity (cells+medium).
# ABCA1 [1] = assay: Direct measurement of ABCA1 protein in skin fibroblasts; assay type: cell-based, human; details: efflux in the presence of FABAC, compared to untreated cells
# Experimental: as §1, §2
# ABCA1 [2] = assay: Taqman gene expression in Epiderm FT skin culture: ABCA1 mRNA; assay type: cell-based, human; details: 0.5% (5000 ug/mL) in DMSO, 24 hours post-application, vs DMSO control
# Experimental: A full-thickness in vitro skin culture model, Epiderm FT (MatTek, MA), was treated with Steamchol. Steamchol in DMSO (0.5%, 5000 ug/mL) was applied to the surface of each test culture and cells were collected 24 hours post-application. Control cells were similarly treated with DMSO without Steamchol.
# Tissues were collected in RNA later for gene expression analysis. Gene expression was analyzed using validated Taqman gene expression assays in Taqman Low Density Array (TLDA) format. 94 genes that regulate a variety of known functions in skin were analyzed including the ABCA1 and SCD1 genes. The experimental set up was conducted in a 96-well format using validated Taqman gene expression assays. Each gene was assayed in duplicates. Statistics were carried out using the StatMiner software v4.2 (unpaired t-tests, p≦0.05, N=4) to compare the Steamchol group to the DMSO control group.
# [3] = test system: Full-thickness Epiderm cultures (EFT-400, MatTek); assay: Cytotoxicity assay (MTT) after topical application to full-thickness skin cultures; assay type: cell-based; details: 24-hour exposure; for Cell Viability: 10 μL topical, MTT, vs untreated control
# Experimental: (§3) Full-thickness Epiderm cultures (EFT-400, MatTek) were used to determine toxicity in response to topical application of a test material (Steamchol).
# The test material was provided as a powder. Test solutions were prepared by adding the appropriate amount of powdered material to 1 mL DMSO. Lower concentrations were made by serial dilution with 100% DMSO. The final test material concentrations and treatments are listed below: • 2% Steamchol (20,000 ug/mL) • 1% Steamchol (10,000 ug/mL) • 0.1% Steamchol (1000 ug/mL) • 0.01% Steamchol (100 ug/mL) • vehicle control (100% DMSO) • untreated control
# Full-thickness skin cultures (EFT-400) were maintained as required to ensure viability; the cultures were equilibrated at 37° C. and 5% CO2 for 24 hours prior to application of test materials. Test material was applied to the surface of each culture using sterile techniques (10 μL applied to each culture). Two cultures were assigned to each treatment group. Two EFT cultures served as an untreated control (also referred to as negative control in FIG. 2), and two other EFT cultures served as a positive control (100 μL 1% Triton X-100).
# Following a 24-hour incubation period with the test material, cultures were processed for cell toxicity analysis using an MTT [(3-4,5-dimethylthiazole-2-yl)2,5-diphenyltetrazoliumbromide] assay (reagents purchased from MatTek). Viable tissues converted MTT into a blue formazan salt that was detected by measuring absorbance at a specific wavelength of light (A570). Percent viability was calculated by comparing the A570 reading of the test cultures to the A570 of the untreated control culture, using the following formula: [Treated A570/Untreated A570]*100.
# [4] = test system: Full-thickness Epiderm cultures (EFT-400, MatTek); assay: Previous viability assay; assay type: cell-based; details: concentrations of 40.0, 13.3, 4.4, 1.5 ug/mL
# Description: as §3
Compound,Cholesterol efflux in fibroblasts (human skin fibroblasts),ABCA1 protein concentration increase (ABCA1 [1]),Change in mRNA levels of ABCA1 (ABCA1 [2]),Cell Viability ([3]; 0.01% Steamchol (100 ug/mL) in DMSO),Cell Viability ([3]; 0.1% Steamchol (1000 ug/mL) in DMSO),"Cell Viability ([3]; 1% Steamchol (10,000 ug/mL) in DMSO)","Cell Viability ([3]; 2% Steamchol (20,000 ug/mL) in DMSO)",Cell viability compared to the untreated control ([3]; all dilutions tested (0.01%-2% in DMSO)),Toxicity in viability assay [4]
"CCCCCCCCCCCCCCCCCCCC(=O)N[C@H]1CC[C@@]2(C)[C@@H](C1)C[C@@H](O)[C@@H]1[C@@H]2C[C@H](O)[C@]2(C)[C@@H]([C@H](C)CCC(=O)O)CC[C@@H]12 [Aramchol, 3β-arachidylamido-7α,12α, dihidroxy-5β-cholan-24-oic acid]",significantly enhanced,approximately 2 fold,–,–,–,–,–,–,–
"CCCCCCCCCCCCCCCCCC(=O)N[C@H]1CC[C@@]2(C)[C@@H](C1)C[C@@H](O)[C@@H]1[C@@H]2C[C@H](O)[C@]2(C)[C@@H]([C@H](C)CCC(=O)O)CC[C@@H]12 [Steamchol, 3β-stearylamido-7α,12α, dihidroxy-5β-cholan-24-oic acid]",significantly enhanced,approximately 2 fold,No significant change,100.41%,99.98%,96.88%,93.89%,~100%,no toxicity was observed
